Here are results for 19 molecules from patent US20250235460A1, “COMBINATION THERAPY USING GLUCOSE-DEPENDENT INSULINOTROPIC POLYPEPTIDE RECEPTOR ANTAGONIST COMPOUNDS AND GLP-1 RECEPTOR AGONIST COMPOUNDS” (Pfizer Inc., priority 2024, published 2025).

Structures can show the parent of a compound that is named as a salt. Where two headings read alike, the source gives them in different places.

In test [1] the target is human GLP-1R (Homo sapiens, UniProt P43220, L260F). In words: CHO GLP-1R Clone C6 cAMP HTRF agonist assay (Assay 2, low receptor density). The class given is cell-based. The settings on record: for EC50: CHO GLP-1R clone C6, cAMP HTRF, geometric mean; for Emax: CHO GLP-1R clone C6, arithmetic mean, relative to saturating GLP-1 (1 μM). The text has this:
In Table 5 and Table 6, assay data are presented to two (2) significant figures as the geometric mean (EC50s) and arithmetic mean (Emax) based on the number of replicates listed (Number). A blank cell means there was no data for that Example or the Emax was not calculated.

Test [2] concerns the target human GLP-1R (Homo sapiens, UniProt P43220, G168S). In words: CHO GLP-1R Clone H6 cAMP HTRF agonist assay (Assay 1, high receptor density). The settings on record: for EC50: CHO GLP-1R clone H6, cAMP HTRF, geometric mean; for Emax: read-out: Assay 1 Emax (%). It is filed as cell-based. In short, it runs like this: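 Replicate runs were pooled. Potencies were averaged geometrically and maximal efficacies arithmetically, then rounded to two significant figures.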
(In general: TR-FRET usually uses a lanthanide donor and a delayed reading to cut background.)

Setting [3] is: CHO GLP-1R clone H6, arithmetic mean, relative to saturating GLP-1 (1 μM).

human GLP-1R (Homo sapiens, UniProt P43220, G168S), sequence (P43220 24-463 G168S): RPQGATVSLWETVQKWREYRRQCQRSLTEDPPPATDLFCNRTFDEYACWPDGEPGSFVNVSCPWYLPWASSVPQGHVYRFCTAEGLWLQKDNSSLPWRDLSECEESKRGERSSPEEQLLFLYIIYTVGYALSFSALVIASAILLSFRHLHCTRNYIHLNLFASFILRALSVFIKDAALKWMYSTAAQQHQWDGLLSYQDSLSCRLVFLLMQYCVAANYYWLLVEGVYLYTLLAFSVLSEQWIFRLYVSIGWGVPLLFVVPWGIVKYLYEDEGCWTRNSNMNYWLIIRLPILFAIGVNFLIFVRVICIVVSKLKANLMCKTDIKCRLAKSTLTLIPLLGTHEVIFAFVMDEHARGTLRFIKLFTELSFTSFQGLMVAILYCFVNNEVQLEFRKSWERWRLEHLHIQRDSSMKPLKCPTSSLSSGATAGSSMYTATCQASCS
human GLP-1R (Homo sapiens, UniProt P43220, L260F), sequence (P43220 24-463 L260F): as the sequence (P43220 24-463 G168S) above, with S145G, L237F counted along it

On to `CC(C)(C)n1cnnc1Cn1c(CN2CCC(c3cccc(OCc4ccc(Cl)cc4F)n3)CC2)nc2ccc(C(=O)O)cc21` [Compound 259B, 1-[(4-tert-butyl-4H-1,2,4-triazol-3-yl)methyl]-2-[(4-{6-[(4-chloro-2-fluorobenzyl)oxy]pyridin-2-yl}piperidin-1-yl)methyl]-1H-benzimidazole-6-carboxylic acid], for which the values for the EC50 at human GLP-1R [1] and at human GLP-1R [2] were 13 nM and 0.95 nM, respectively. The Emax (in general, the size of the effect at its maximum, as opposed to the concentration needed) at human GLP-1R [1] is 91%; at human GLP-1R [2] (setting [3]), 95%.

`N#Cc1ccc(COc2cccc(C3CCN(Cc4nc5ccc(C(=O)O)nc5n4Cc4ncco4)CC3)n2)c(F)c1` [Compound 168B, 2-[(4-{6-[(4-cyano-2-fluorobenzyl)oxy]pyridin-2-yl}piperidin-1-yl)methyl]-3-(1,3-oxazol-2-ylmethyl)-3H-imidazo[4,5-b]pyridine-5-carboxylic acid]: on human GLP-1R [1], the EC50 (in general, the concentration that produces a half-maximal response) came to 1700 nM and the Emax was 88%. The “Assay 1 Emax (%)” value at human GLP-1R [2] (setting [3]) worked out at 79%.

With `O=C(O)c1ccc2nc(CN3CCC(c4cccc(OCc5ccc(Cl)cc5F)n4)CC3)n(Cc3n[nH]c(C4CC4)n3)c2c1` [Compound 339B, 2-[(4-{6-[(4-chloro-2-fluorobenzyl)oxy]pyridin-2-yl}piperidin-1-yl)methyl]-1-[(5-cyclopropyl-1H-1,2,4-triazol-3-yl)methyl]-1H-benzimidazole-6-carboxylic acid], the EC50 on human GLP-1R [1] worked out at 1600 nM; on human GLP-1R [2], 36 nM. The Emax at human GLP-1R [1] turned out to be 82%; on human GLP-1R [2] (setting [3]), 71%.

Consider `N#Cc1ccc(COc2cccc(C3CCN(Cc4nc5ccc(C(=O)O)cc5n4C[C@@H]4CCCO4)CC3)n2)cc1` [Compound 131B, 2-[(4-{6-[(4-cyanobenzyl)oxy]pyridin-2-yl}piperidin-1-yl)methyl]-1-[(2S)-tetrahydrofuran-2-ylmethyl]-1H-benzimidazole-6-carboxylic acid], for which the EC50 at human GLP-1R [1] is 1000 nM; at human GLP-1R [2] it was 45 nM. The figures for the Emax at human GLP-1R [1] and at human GLP-1R [2] (setting [3]) were 84% and 65%, respectively.

As to `O=C(O)c1ccc2nc(CN3CCC(c4cccc(OCc5ccc(Cl)cc5F)n4)CC3)n(CC3CCC3)c2c1` [Compound 291B, 2-[(4-{6-[(4-chloro-2-fluorobenzyl)oxy]pyridin-2-yl}piperidin-1-yl)methyl]-1-(cyclobutylmethyl)-1H-benzimidazole-6-carboxylic acid], the EC50 worked out at 1200 nM on human GLP-1R [1] and 54 nM on human GLP-1R [2]. The Emax on human GLP-1R [1] is 82%; on human GLP-1R [2] (setting [3]), 77%.

On to `O=C(O)c1ccc2nc(CN3CCC(c4cccc(OCc5ccc(Cl)cc5F)n4)CC3)n(Cc3ncco3)c2n1` [Compound 167B, 2-[(4-{6-[(4-chloro-2-fluorobenzyl)oxy]pyridin-2-yl}piperidin-1-yl)methyl]-3-(1,3-oxazol-2-ylmethyl)-3H-imidazo[4,5-b]pyridine-5-carboxylic acid], for which the concentration for a half-maximal effect (EC50) at human GLP-1R [1] turned out to be 350 nM; on human GLP-1R [2], 18 nM. Besides, the values for the Emax on human GLP-1R [1] and on human GLP-1R [2] (setting [3]) were 77% and 84%, respectively.

Consider `CN1CCC(Cn2c(CN3CCC(c4cccc(OCc5ccc(Cl)cc5F)n4)CC3)nc3ccc(C(=O)O)cc32)CC1` [Compound 283B, 2-[(4-{6-[(4-chloro-2-fluorobenzyl)oxy]pyridin-2-yl}piperidin-1-yl)methyl]-1-[(1-methylpiperidin-4-yl)methyl]-1H-benzimidazole-6-carboxylic acid], for which the results for the EC50 on human GLP-1R [1] and on human GLP-1R [2] were 270 nM and 15 nM, respectively. The Emax is 88% at human GLP-1R [1] and 83% on human GLP-1R [2] (setting [3]).

Consider `CCn1cnnc1Cn1c(CN2CCN(c3cccc(OCc4ccc(Cl)cc4F)n3)C[C@@H]2C)nc2ccc(C(=O)O)cc21` [Compound 245B, 2-{[(2S)-4-{6-[(4-chloro-2-fluorobenzyl)oxy]pyridin-2-yl}-2-methylpiperazin-1-yl]methyl}-1-[(4-ethyl-4H-1,2,4-triazol-3-yl)methyl]-1H-benzimidazole-6-carboxylic acid], for which the results for the EC50 on human GLP-1R [1] and at human GLP-1R [2] were 35 nM and 1.5 nM, respectively. For the same molecule, the Emax was 89% at human GLP-1R [1] and 74% at human GLP-1R [2] (setting [3]).

As for `Cn1c(CN2CCC(c3cccc(OCc4ccc(Cl)cc4F)n3)CC2)nc2ccc(C(=O)O)nc21` [Compound 199B, 2-((4-(6-((4-Chloro-2-fluorobenzyl)oxy)pyridin-2-yl)piperidin-1-yl)methyl)-3-methyl-3H-imidazo[4,5-b]pyridine-5-carboxylic acid hydrochloride], on human GLP-1R [1], the EC50 was 45 nM and the Emax turned out to be 83%. Further, on human GLP-1R [2], the midpoint of the response, the EC50, lay at 1.7 nM and the Emax amounted to 67%.

With `N#Cc1ccc(COc2nc(C3CCN(Cc4nc5ccc(C(=O)O)cc5n4C[C@@H]4CCO4)CC3)ccc2F)c(F)c1` [Compound 113B, 2-[(4-{6-[(4-cyano-2-fluorobenzyl)oxy]-5-fluoropyridin-2-yl}piperidin-1-yl)methyl]-1-[(2S)-oxetan-2-ylmethyl]-1H-benzimidazole-6-carboxylic acid], the values for the EC50 at human GLP-1R [1] and at human GLP-1R [2] were 45 nM and 3.9 nM, respectively. Besides, the Emax at human GLP-1R [1] and at human GLP-1R [2] (setting [3]) was 82% in each case.

For the molecule `CCCn1cnnc1Cn1c(CN2CCC(c3cccc(OCc4ccc(Cl)cc4F)n3)CC2)nc2ccc(C(=O)O)cc21` [Compound 187B, 2-[(4-{6-[(4-chloro-2-fluorobenzyl)oxy]pyridin-2-yl}piperidin-1-yl)methyl]-1-[(4-propyl-4H-1,2,4-triazol-3-yl)methyl]-1H-benzimidazole-6-carboxylic acid], the concentration giving a half-maximal response (EC50) at human GLP-1R [1] turned out to be 2100 nM; on human GLP-1R [2], 49 nM. Moreover, the Emax at human GLP-1R [2] (setting [3]) was found to be 71%.

In the case of `O=C(O)c1ccc2nc(CN3CCC(c4cccc(OCc5ccc(Cl)cc5F)n4)CC3)n(Cc3cc[nH]n3)c2c1` [Compound 299B, 2-[(4-{6-[(4-chloro-2-fluorobenzyl)oxy]pyridin-2-yl}piperidin-1-yl)methyl]-1-(1H-pyrazol-3-ylmethyl)-1H-benzimidazole-6-carboxylic acid], the EC50 was 2200 nM on human GLP-1R [1] and 110 nM on human GLP-1R [2]. For the same molecule, at human GLP-1R [2] (setting [3]), the Emax worked out at 79%.

Turning to `COCCn1c(CN2CCN(c3cccc(OCc4ccc(Cl)cc4F)n3)CC2C(F)(F)F)nc2ccc(C(=O)O)cc21` (stereo not shown) [Compound 348B, 2-((4-(6-((4-Chloro-2-fluorobenzyl)oxy)pyridin-2-yl)-2-(trifluoromethyl)piperazin-1-yl)methyl)-1-(2-methoxyethyl)-1H-benzo[d]imidazole-6-carboxylic acid], the EC50 is 2100 nM at human GLP-1R [1] and 54 nM at human GLP-1R [2]. The Emax at human GLP-1R [1] came to 100%; on human GLP-1R [2] (setting [3]), 81%.

As to `Cn1c(CN2CCC(c3cccc(OCc4ccc(Cl)cc4)n3)CC2)nc2ccc(C(=O)O)cc21` [Compound 225B, 2-[(4-{6-[(4-chlorobenzyl)oxy]pyridin-2-yl}piperidin-1-yl)methyl]-1-methyl-1H-benzimidazole-6-carboxylic acid], the EC50 on human GLP-1R [1] is 140 nM; at human GLP-1R [2], 12 nM. The Emax came out at 82% at human GLP-1R [1] and 75% on human GLP-1R [2] (setting [3]).

Turning to `Cc1nnc(Cn2c(CN3CCC(c4cccc(OCc5ccc(Cl)cc5F)n4)CC3)nc3ccc(C(=O)O)cc32)n1C` [Compound 244B, 2-[(4-{6-[(4-chloro-2-fluorobenzyl)oxy]pyridin-2-yl}piperidin-1-yl)methyl]-1-[(4,5-dimethyl-4H-1,2,4-triazol-3-yl)methyl]-1H-benzimidazole-6-carboxylic acid], the EC50 at human GLP-1R [1] amounted to 460 nM; on human GLP-1R [2] it was 31 nM. For the same molecule, the Emax on human GLP-1R [1] came to 66%; at human GLP-1R [2] (setting [3]) it was 81%.

`Cn1c(CN2CCC(c3cccc(OCc4ccc(OC(F)(F)F)cc4)n3)CC2)nc2ccc(C(=O)O)cc21` [Compound 228B, 1-methyl-2-{[4-(6-{[4-(trifluoromethoxy)benzyl]oxy}pyridin-2-yl)piperidin-1-yl]methyl}-1H-benzimidazole-6-carboxylic acid]: the figures for the EC50 at human GLP-1R [1] and on human GLP-1R [2] were 99 nM and 6 nM, respectively. Moreover, the Emax at human GLP-1R [1] is 81%; on human GLP-1R [2] (setting [3]) it was 73%.

In the case of `CO[C@H]1C[C@@H](Cn2c(CN3CCC(c4cccc(OCc5ccc(Cl)cc5F)n4)CC3)nc3ccc(C(=O)O)cc32)C1` [Compound 195B, 2-[(4-{6-[(4-chloro-2-fluorobenzyl)oxy]pyridin-2-yl}piperidin-1-yl)methyl]-1-[(cis-3-methoxycyclobutyl)methyl]-1H-benzimidazole-6-carboxylic acid], the EC50 amounted to 4400 nM at human GLP-1R [1] and 110 nM on human GLP-1R [2]. Also, the values for the Emax on human GLP-1R [1] and at human GLP-1R [2] (setting [3]) were 110% and 68%, respectively.

On to `Cc1ccc(Cn2c(CN3CCC(c4cccc(OCc5ccc(Cl)cc5F)n4)CC3)nc3ccc(C(=O)O)cc32)cn1` [Compound 336B, 2-[(4-{6-[(4-chloro-2-fluorobenzyl)oxy]pyridin-2-l}piperidin-1-yl)methyl]-1-[(6-methylpyridin-3-yl)methyl]-1H-benzimidazole-6-carboxylic acid], for which the concentration for a half-maximal effect (EC50) at human GLP-1R [1] came to 5300 nM; on human GLP-1R [2] it was 150 nM. Further, the Emax at human GLP-1R [1] amounted to 80%; on human GLP-1R [2] (setting [3]), 68%.

Take `Cc1n[nH]c(Cn2c(CN3CCC(c4cccc(OCc5ccc(Cl)cc5F)n4)CC3)nc3ccc(C(=O)O)cc32)n1` [Compound 334B, 2-[(4-{6-[(4-chloro-2-fluorobenzyl)oxy]pyridin-2-yl}piperidin-1-yl)methyl]-1-[(3-methyl-1H-1,2,4-triazol-5-yl)methyl]-1H-benzimidazole-6-carboxylic acid]: the EC50 amounted to 570 nM at human GLP-1R [1] and 30 nM on human GLP-1R [2]. Besides, the values for the Emax on human GLP-1R [1] and at human GLP-1R [2] (setting [3]) were 93% and 73%, respectively.
